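A five-concentration, 48-hour dose response in 96-well plates underlies each endpoint, interpolated linearly between surrounding concentrations. GI50 is the concentration that inhibits growth by half. TGI: total growth inhibition.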

Among the test systems are U251 CNS; NCI-H522 lung; HT29 colon; DU-145 prostate; KM12 colon; PC-3 prostate; CAKI-1 renal; HCT-116 colon.
Holding throughout (test): NCI tumour cell line growth inhibition, 48 h

On to `CC1=C2[C@@H](CC1)[C@]1(C)O[C@@](C(C)C)(C[C@H]1OC(=O)CO)[C@H]2OC(=O)CCCc1ccccc1`, for which the GI50 is 5.61 µM in the assay on U251 CNS; 7.51 µM with NCI-H522 lung; 10.8 µM in the assay on HT29 colon; 8.82 µM in the assay with DU-145 prostate; 5.97 µM in the assay with KM12 colon; 3.63 µM with PC-3 prostate. Besides, the results for the GI50 with CAKI-1 renal and in the assay with HCT-116 colon were 4.24 µM and 3.54 µM, respectively. The TGI amounted to 20.9 µM in the assay on U251 CNS; 24.6 µM with NCI-H522 lung; 26.1 µM in the assay on HT29 colon; 20.9 µM with DU-145 prostate; 20.1 µM with KM12 colon; 16.1 µM in the assay with PC-3 prostate. For the same molecule, the TGI came to 16.7 µM with CAKI-1 renal and 13.9 µM with HCT-116 colon.
`CCN(CCO)CCCC(C)Nc1ccnc2cc(Cl)ccc12` (stereo not drawn): the GI50 in the assay with U251 CNS, in the assay with NCI-H522 lung, in the assay with HT29 colon, in the assay with DU-145 prostate, with KM12 colon and in the assay on PC-3 prostate was above 100 µM throughout. Moreover, the GI50 in the assay on CAKI-1 renal and in the assay with HCT-116 colon was above 100 µM each time. Also, the TGI in the assay on U251 CNS, in the assay with NCI-H522 lung, with HT29 colon, in the assay with DU-145 prostate, with KM12 colon and with PC-3 prostate was above 100 µM in each case. Further, the TGI with CAKI-1 renal and in the assay with HCT-116 colon was above 100 µM each time.
Regarding `CC[C@H]1CCC/C=C/[C@@H]2C[C@H](O)C[C@H]2[C@H](O)/C=C/C(=O)O1`, the GI50 was 0.0443 µM in the assay on U251 CNS; 0.211 µM in the assay with NCI-H522 lung; 0.0264 µM in the assay with HT29 colon; 0.179 µM with DU-145 prostate; 0.0227 µM with KM12 colon; 0.0517 µM in the assay with PC-3 prostate. For the same molecule, the GI50 in the assay on CAKI-1 renal was 0.0444 µM; with HCT-116 colon, 0.0328 µM. Besides, the TGI is above 100 µM with U251 CNS; 0.634 µM in the assay with NCI-H522 lung; 0.405 µM in the assay with HT29 colon; above 100 µM in the assay on DU-145 prostate; 0.0523 µM in the assay with KM12 colon; above 100 µM with PC-3 prostate. The TGI with CAKI-1 renal was above 100 µM; in the assay on HCT-116 colon it was 0.119 µM.
On to `O=c1cc(-c2ccccc2)oc2c1ccc1ccccc12`, for which the GI50 in the assay on U251 CNS is 17.1 µM; with NCI-H522 lung, 30.5 µM; in the assay with HT29 colon, 25.6 µM; in the assay on DU-145 prostate, 30.6 µM; in the assay on KM12 colon, 24.9 µM; in the assay with PC-3 prostate, 23.1 µM. Moreover, the values for the GI50 in the assay on CAKI-1 renal and in the assay on HCT-116 colon were 18 µM and 20.3 µM, respectively. Also, the TGI in the assay on U251 CNS is above 100 µM; in the assay with NCI-H522 lung, above 100 µM; in the assay on HT29 colon, above 100 µM; in the assay on DU-145 prostate it was above 100 µM; in the assay on KM12 colon, 89.2 µM; in the assay on PC-3 prostate, above 100 µM. Moreover, the TGI in the assay on CAKI-1 renal and with HCT-116 colon was above 100 µM throughout.
As to `O=C(c1ccccc1)C1OC1C(=O)c1ccccc1` (stereo not drawn), the GI50 in the assay on U251 CNS was 7.58 µM; in the assay on NCI-H522 lung, 0.323 µM; in the assay on HT29 colon, 3.19 µM; with DU-145 prostate, 1.32 µM; in the assay with KM12 colon it was 3.51 µM; in the assay with PC-3 prostate, 4.72 µM. The GI50 was 2.82 µM in the assay with CAKI-1 renal and 2.09 µM in the assay on HCT-116 colon. The TGI amounted to 37.1 µM with U251 CNS; 2.24 µM in the assay with NCI-H522 lung; 13.2 µM in the assay with HT29 colon; 4.28 µM in the assay with DU-145 prostate; 11.9 µM in the assay on KM12 colon; 25.7 µM in the assay with PC-3 prostate. Moreover, the TGI came out at 23.4 µM in the assay on CAKI-1 renal and 11.4 µM with HCT-116 colon.
As to `Fc1ccc(-c2ncn(CCCN3CCOCC3)c2-c2ccncc2)cc1`, the GI50 in the assay on U251 CNS, in the assay on NCI-H522 lung, with HT29 colon, in the assay on DU-145 prostate, in the assay on KM12 colon and with PC-3 prostate was above 25 µM throughout. In addition, the GI50 in the assay with CAKI-1 renal and with HCT-116 colon was above 25 µM throughout. The TGI in the assay with U251 CNS, in the assay with NCI-H522 lung, with HT29 colon, in the assay with DU-145 prostate, in the assay with KM12 colon and in the assay with PC-3 prostate was above 25 µM throughout. Moreover, the TGI in the assay on CAKI-1 renal and in the assay on HCT-116 colon was above 25 µM throughout.
With `FC(F)(F)c1nc(SCc2ccc(Cl)cc2)n[nH]1`, the TGI in the assay on U251 CNS, in the assay on NCI-H522 lung, with HT29 colon, in the assay on DU-145 prostate, with KM12 colon and in the assay with PC-3 prostate was above 100 µM in each case. Also, the TGI in the assay on CAKI-1 renal and in the assay on HCT-116 colon was above 100 µM in each case.
`S=C1SCN(Cc2ccccc2)CN1Cc1ccccc1`: the GI50 in the assay with U251 CNS is 5.61 µM; in the assay with NCI-H522 lung it was 3.83 µM; in the assay on HT29 colon, 3.89 µM; in the assay with DU-145 prostate, 2.69 µM; in the assay on KM12 colon, 2.1 µM; in the assay with PC-3 prostate, 3.36 µM. For the same molecule, the GI50 in the assay on CAKI-1 renal is 7.19 µM; in the assay on HCT-116 colon it was 3.05 µM. For the same molecule, the TGI in the assay with U251 CNS worked out at 16.4 µM; with NCI-H522 lung it was 10 µM; in the assay on HT29 colon, 15.1 µM; with DU-145 prostate it was 9.18 µM; in the assay on KM12 colon, 6.84 µM; in the assay with PC-3 prostate it was 15.6 µM. For the same molecule, the TGI turned out to be 20.9 µM in the assay on CAKI-1 renal and 13 µM in the assay on HCT-116 colon.
For `CCc1[nH]nc(C(N)=O)c1N=NN(C)C`, the TGI in the assay on U251 CNS, in the assay with NCI-H522 lung, in the assay with HT29 colon, in the assay on DU-145 prostate, in the assay on KM12 colon and in the assay with PC-3 prostate was above 100 µM throughout. The TGI in the assay on CAKI-1 renal and with HCT-116 colon was above 100 µM throughout.
Turning to `CCOC(=O)Nc1ccc2c(c1)C(=O)N(CC)c1ccccc1O2`, the GI50 in the assay on U251 CNS was 0.106 µM; with NCI-H522 lung, 0.0797 µM; with HT29 colon, 0.0791 µM; in the assay with DU-145 prostate, 0.127 µM; with KM12 colon, 0.0661 µM; in the assay on PC-3 prostate it was 0.121 µM. For the same molecule, the GI50 in the assay on CAKI-1 renal was 0.179 µM; in the assay with HCT-116 colon, 0.0829 µM. Also, the TGI with U251 CNS is above 100 µM; in the assay on NCI-H522 lung it was 1.09 µM; in the assay with HT29 colon, above 39.6 µM; with KM12 colon, above 100 µM; in the assay with PC-3 prostate, above 100 µM; in the assay on CAKI-1 renal, above 100 µM. Besides, in the assay on HCT-116 colon, the TGI is above 100 µM.
